Assay results published in patent US7268118B2, “Thymosin β4 compositions” (United States of America as represented by The Secretary of …, priority 1998, dated 2007).

Tests used:
[1] = tested on: full thickness cutaneous rat wound; experiment: Full thickness punch biopsy wound healing in rats; type: in vivo; conditions: for decrease in wound width relative to saline treated controls: intraperitoneal 60 μg in 300 μl
Experimental: Full thickness 8 mm punch biopsy wounds were made on the dorsal surface of rats as previously reported (Bhartiya et al., J. Cell. Physiol. 150:312, 1992; Sihhu et al., J. Cell. Physiol. 169:108, 1996) and Tβ4 was given topically at the time of wounding (5 μg in 50 μl) and again after 48 hours. Controls for the topical treatment received identical amounts of saline at the time of wounding and at 48 hours. Additional rats received intraperitoneal injections at the time of wounding (60 μg in 300 μl) and again every other day (e.g., days 0, 2, 4, and 6). Controls for these animals received identical amounts of saline intra-peritoneally on the same injection schedule. On days 4 and 7 post-wounding, measurements were made on the wound size. At days 8 and 9 post-wounding, tissue was collected and fixed in 10% buffered formalin. The samples were sectioned and stained with H&E and Masson's Trichrome (American Histolabs, Gaithersburg, Md.).
Histological sections were used to measure the re-epithelialization and the contraction of the wound using an ocular micrometer. Epidermal migration was determined by measuring the lengths of the tongues of epithelium migrating form either side of the wound over the wound bed from the zone of proliferation at the margin of the uninjured and wounded skin. Epidermal thickness was also measured beginning at the junction of the uninjured and proliferating epidermis. The thickness was measured vertically from the basement membrane to the most superficial layer of the migrating epidermis at every 200 microns. The mean epidermal thickness of each migrating tongue of epidermis was then computed from each wound. Vessel counts were performed by first identifying vascular spaces by their endothelial lining. All such vessels in the wound bed were counted including those at the junction of the dermis and the subcutis, since angiogenesis into the wounds occurs to a great extent from these vessels. The numbers were averaged into vessel counts per 10 high powered fields (40×).
The effect of Tβ4 on wound healing was studied in a full thickness cutaneous rat wound model. […] This model allowed measurement of two parameters: the re-epithelialization (gap) and the contraction (width) of the wound.

[2] = tested on: primary keratinocytes; experiment: Keratinocyte migration assay in Boyden chamber; type: cell-based, mice
Experimental: Primary keratinocytes were prepared from either Balb/c or CD-1 newborn mice as described previously (Dlugosz et al., 1995). Cells were plated in calcium- and magnesium-free Eagle's Minimal Essential Medium (EMEM) containing 8% fetal calf serum treated with 8% Chelex (Bio-Rad Laboratories, Hercules, Calif.), 20 units/ml penicillin-streptomycin, and the calcium concentration was adjusted to 0.25 mM. The following day, cultures were washed with calcium- and magnesium-free phosphate buffered saline, treated briefly with Trypsin (Life Technologies, Gaithersburg, Md.), washed with culture medium and resuspended in EMEM containing 0.05 mM calcium. Cells were used immediately in migration assays.
Keratinocyte migration assays were carried out in Boyden chamber using 12 μm pore polyester membranes (Poretics, Livermore, Calif.) coated with a 0.1 mg/ml solution of collagen IV in dH2O (Trevigen, Gaithersburg, Md.). Filters were then dried at least 1 h. Cells were harvested using Versene or Trypsin (Life Technologies, Gaithersburg, Md.) and resuspended in Eagle's minimal essential medium with 0.05 mM Ca^2+. The bottom chamber was loaded with EMEM containing 0.01, 0.1, 10, 100, and 1000 ng/ml of synthetic Tβ4. […] The cells that migrated through the filter were quantitated by counting the center of each well at 10× using an Olympus CK2 microscope. […]

[3] = tested on: Corneal Epithelial Cell; experiment: Corneal epithelial cell migration assay in Boyden chamber; type: cell-based
Experimental: Corneal Epithelial Cell migration assays were carried out in Boyden chamber using 12 μm pore polyester membranes (Poretics, Livermore, Calif.) coated with a 0.1 mg/ml solution of collagen IV in dH2O (Trevigen, Gaithersburg, Md.). Filters were then dried at least 1 h. Cells were cultured and resuspended in Eagle's Minimal Essential Medium with 0.05 mM Ca^2+. The bottom chamber was loaded with EMEM containing 0.01, 0.1, 10, 100, and 1000 ng/ml of synthetic Tβ4. Conditioned medium from primary dermal fibroblasts and/or keratinocyte growth factor was added to several wells as a positive control. Cells were added to the upper chamber at a concentration of 50,000 cells per well. Chambers were incubated at 35 C/7% CO2 for 4-5 hours and the filters were then fixed and stained using Diff-Quik (Baxter Healthcare Corporation, McGraw Park, Ill.). The cells that migrated through the filter were quantitated by counting the center of each well at 10× using an Olympus CK2 microscope. Each condition was assayed in triplicate wells and each experiment was repeated four times with different preparations of cells. […] Migration was enhanced 2-3 fold over migration in the presence of media alone (FIG. 7) with the highest level of migration seen at 100 ng/ml of Tβ4.

[4] = tested on: de-epithelialized Rat corneas; experiment: In vivo corneal re-epithelialization
Experimental: To determine the effect of Tβ4 on corneal re-epithelialization in vivo, Rat corneas were de-epithelialized and treated with Tβ4. Filters were soaked in heptanol, applied to the eye for 30 seconds, and then the epithelium was scraped. Various concentration of Tβ4 in saline was applied to the eye and at 24 hours the rats were sacrificed. The eyes were fixed, sectioned and the degree of corneal epithelial migration (as measured in pixels) was determined using a microscope with an internal caliper by a masked observer.

[5] = tested on: wounds of steroid treated rats; experiment: Impaired healing model (hydrocortisone treated rats); type: in vivo, rat
Experimental: Steroid treatment reduces the rate of wound repair in mammals. Rats treated with steroids such as hydrocortisone serve as a model of impaired wound healing due to the delay observed in wound closure. Animals were injected intramuscularly everyday with hydrocortisone.

[6] = intraperitoneal injection, day 4
[7] = intraperitoneal injection, day 7

thymosin β4 [Tβ4]
increase in the number of vessels in treated wounds ([1]; 7 day wounds): about 2 fold
decrease in wound width as compared to the saline controls ([1]; FIG. 2, topical 5 μg in 50 μl, as early as 4 days after wounding, continued until day 7): 15%
Epidermal Migration ([1]; I.P.): 3168.3 ± 38.4 μm
Epidermal Thickness ([1]; I.P.): 135.0 ± 11.7 μm
Vessels/10 HPF ([1]; I.P.): 2415.0 ± 24.3
Epidermal Migration ([1]; Topical): 3668.7 ± 56.6 μm
Epidermal Thickness ([1]; Topical): 142.3 ± 19.8 μm
Vessels/10 HPF ([1]; Topical): 2186.0 ± 11.8
re-epithelialization of the wound (histology) ([1]; day 7, intraperitoneal 60 μg/300 μl on alternate days): Increased re-epithelialization
neovascularization of the dermis (histology) ([1]; day 7, intraperitoneal and topical): significant new capillaries
re-epithelialization of the wound (histology) ([1]; day 7, topical 5 μg/50 μl): complete reepithelialization
thickness of the migrating epidermis versus control ([1]; either Tβ4 treatment (I.P., topical)): no difference
effect on wound healing at lower dose ([1]; intraperitoneal 6 μg in 300 μl): no effect
effect on wound healing at lower dose ([1]; intraperitoneal 30 μg in 300 μl): reduced
decrease in wound width relative to saline treated controls ([1]; day 4): 18%
decrease in wound width relative to saline treated controls ([1]; day 7): 11%
decrease in gap size relative to saline treated controls ([1]; intraperitoneal, 4th day post wounding): 42%
migration of epidermal tongues as compared to controls ([1]; intraperitoneally treated wounds): statistically significant increase
number of macrophages in the wounds ([1]; rat, in vivo): No increases
effect on wound healing at lower dose ([1]; topical 0.5 μg in 50 μl): no effect
effect on wound healing at lower dose ([1]; topical 2.5 μg in 50 μl): reduced
wound healing as compared to untreated wounds ([1]; topical or intraperitoneal): significantly accelerated wound healing
increase in migration of epidermal tongues over the wound bed ([1]; topical treatment): 1.5 fold
decrease in gap length as compared to saline controls ([1]; topical, 4 days after wounding): 18%
decrease in width, treated versus controls ([1]; topical, time not stated (FIG. 2)): about 15%
decrease in gap, treated versus controls ([1]; topical, time not stated (FIG. 3)): about 15%
decrease in gap size ([1]; wounds treated for 7 days, route not stated): 62%
migration at the maximal responding dose versus positive control [2]: exceeded the positive control
keratinocyte migration over media alone ([2]; 4-5 hours, filters coated with collagen IV): 2-3 fold
corneal epithelial cell migration over media alone ([3]; 4-5 hours of exposure): 2-3 fold
concentration with the highest level of migration ([3]; tested 0.01-1000 ng/ml): 100 ng/mL
re-epithelialization of the cornea over untreated control ([4]; about 1 to 25 μg of Tβ4 in saline applied to the eye, 24 hours): 2 fold
inflammation of treated eyes compared to non-treated corneas ([4]; rat, in vivo): reduced inflammation
decrease in gap size [5, 6]: 28%
decrease in wound width [5, 6]: 14%
decrease in gap size [5, 7]: 26%
decrease in wound width [5, 7]: 10%
level of healing in steroid treated rats ([5]; topical or intraperitoneal): significant increase in the level of healing
gap or width closure compared to saline treatment ([5]; topical, day 4, N=3): ≤ 7%
decrease in gap compared to saline treatment ([5]; topical, day 7): 39%
decrease in wound width ([5]; topical, day 7): 23%
